Patent publication US20170158702A1, “MULTIVALENT RAS BINDING COMPOUNDS” (KYRAS THERAPEUTICS, INC., priority 2015, published 2017)
Where a name gives a salt, the structure may show the parent alone.

Tests used:
Type in all cases: cell-based
NCI-H460 = assay: Viability assay with NCI-H460 (CellTiter-Glo cytotoxicity assay, 72 h); details: NCI-H460 cell line, 72 h after compounds addition
Summary of the method: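 NCI-H460 cells, RPMI 1640 + 10% FBS, seeded 1200/well and adhered overnight, then exposed to compounds at 9 points, 2-fold dilution, in triplicate, 0.5% DMSO final. Cellular ATP measured by CellTiter-Glo luminescence 72 h after addition.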

MIA PaCa-2 = assay: Viability assay with MIA PaCa-2; details: MIA PaCa-2, viability assay per Example 57
Summary of the method: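 MIA PaCa-2 cells were seeded at 1200/well, allowed to adhere overnight, then treated in triplicate with 9-point 2-fold compound dilutions at 0.5% final DMSO. Viability was measured as cellular ATP by CellTiter-Glo luminescence 72 h after compound addition.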

NCI-H2023 = assay: Viability assay with NCI-H2023; details: NCI-H2023, viability assay per Example 57
Experimental: NCI-H460 (Epithelial lung tissue; carcinoma; large cell lung cancer) were cultured in RPMI Medium 1640 (Invitrogen-22400105) supplemented with 10% fetal bovine serum (FBS; Invitrogen-10099141). All the cell lines were maintained in a humidified incubator at 37° C. with 5% CO2. Cell culture media and supplements were purchased from Invitrogen, and tissue culture flasks were purchased from Corning, 96-well plates were purchased from Greiner. CellTiter-Glo Luminescent Cell Viability Assay kits were purchased from Promega (Promega-G7573), cells counter Vi-Cell was purchased from Beckman, D300e digital dispenser was purchased from Tecan, detection instrument Envision was purchased from PerkinElmer.
Paclitaxel was purchased from SELLECK, test compounds, such as any one of the compounds disclosed herein, attained solubility in DMSO and when diluted into culture media. DMSO, solutions containing the test compounds, and culture media were warmed to 37° C. or room temperature for the solution preparation and dilutions.
NCI-H460 Cell line were seeded in 96-well plates (1200/well) and allowed to adhere to overnight (100 uL/well), for drug treatments with 2 fold dilution, 9 dose points, triplicates or vehicle control, compound stock solutions were prepared in DMSO and use D300e digital dispenser to add compounds to the wells to give the indicated final drug concentrations. Final DMSO concentration was 0.5%. Cellular ATP concentrations were assessed by using the CellTiter-Glo Cell Viability Assay as per the manufacturer's instructions 72 h after compounds addition. Additional cells lines were assayed with any one of the compounds disclosed herein according to the procedures described for the viability assay with NCI-H460.
A viability assay with NCI-H2023 (stage 3A, adenocarcinoma; non-small cell lung cancer) was performed with compounds listed in Table 16 according to the procedures described in Example 57.

HT-29 = assay: Viability assay with HT-29; details: HT-29, viability assay per Example 57
Summary of the method: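 Cells seeded 1200/well, adhered overnight, then treated with 9-point 2-fold compound dilutions in triplicate (0.5% final DMSO). Viability taken as cellular ATP by CellTiter-Glo luminescence 72 h after compound addition.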

Compound	EC50 (MIA PaCa-2) [µM]	EC50 (NCI-H2023) [µM]	EC50 (MIA PaCa-2; Homo sapiens) [µM]	EC50 (HT-29) [µM]	EC50 (NCI-H460) [µM]	EC50 (NCI-H460; Homo sapiens) [µM]
NC1(C(=O)NCCCn2cc(-c3ccc(OC(F)(F)F)cc3)c3cc(CN4CCN(Cc5c(Cl)cccc5Cl)CC4)ccc32)CCNCC1 [C41; Trifluoroacetic acid]	≤ 5	≤ 5	–	–	≤ 5	–
CC(C)N1CCN(Cc2ccc3c(c2)c(-c2ccc(OC(F)(F)F)cc2)cn3CCCNC(=O)C2(N)CCNCC2)CC1 [C34; HCl]	10 to 30	10 to 30	–	–	10 to 30	–
NCCCn1cc(-c2ccc(OC(F)(F)F)cc2)c2cc(CN3CCN(C(=O)c4ccccc4Cl)CC3)ccc21 [C15; HCl]	≤ 5	≤ 5	–	–	≤ 5	–
NCCCn1cc(-c2ccc(OC(F)(F)F)cc2)c2cc(CN3CCN(S(=O)(=O)c4ccccc4Cl)CC3)ccc21 [C14; HCl]	≤ 5	≤ 5	–	–	≤ 5	–
NC1(C(=O)NCCCn2cc(-c3ccc(OC(F)(F)F)cc3)c3cc(CN4CCN(Cc5c(F)cccc5F)CC4)ccc32)CCNCC1 [C55; HCl]	≤ 5	≤ 5	–	–	≤ 5	–
CC(=O)NCCCn1cc(-c2ccc(OC(F)(F)F)cc2)c2cc(CN3CCN(Cc4c(Cl)cccc4Cl)CC3)ccc21 [C47; Formic acid]	≤ 5	≤ 5	–	–	≤ 5	–
NCCCn1cc(-c2ccc(F)cc2)c2cc(CN3CCN(Cc4c(Cl)cccc4Cl)CC3)ccc21 [C23; Formic acid]	≤ 5	≤ 5	–	–	≤ 5	–
NC1(C(=O)NCCCn2cc(-c3ccc(OC(F)(F)F)cc3)c3cc(CN4CCN(c5ccccc5)CC4)ccc32)CCNCC1 [C38; HCl]	≤ 5	≤ 5	–	–	≤ 5	–
NCCCn1cc(-c2ccc(OC(F)(F)F)cc2)c2cc(CN3CC4CCC(C3)N4Cc3ccccc3Cl)ccc21 [C17; HCl]	≤ 5	≤ 5	–	–	≤ 5	–
CNCCCn1cc(-c2ccc(OC(F)(F)F)cc2)c2cc(CN3CCN(Cc4c(Cl)cccc4Cl)CC3)ccc21 [C21; Formic acid]	≤ 5	≤ 5	–	–	≤ 5	–
NC1(C(=O)NCCCn2cc(-c3ccccc3)c3cc(CN4CCN(Cc5c(Cl)cccc5Cl)CC4)ccc32)CCNCC1 [C24; HCl]	≤ 5	≤ 5	–	–	≤ 5	–
NC1(C(=O)NCCCn2cc(-c3ccc(O)cc3)c3cc(CN4CCN(Cc5c(Cl)cccc5Cl)CC4)ccc32)CCNCC1 [C36; HCl]	10 to 30	> 30	–	–	> 30	–
N[C@H]1CC[C@H](n2cc(-c3ccc(OC(F)(F)F)cc3)c3cc(CN4CCN(Cc5c(Cl)cccc5Cl)CC4)ccc32)C1 [C42; HCl]	≤ 5	≤ 5	–	–	≤ 5	–
N#Cc1cccc(-c2cn(CCCN)c3ccc(CN4CCN(Cc5c(Cl)cccc5Cl)CC4)cc23)c1 [C13; HCl]	≤ 5	≤ 5	–	–	≤ 5	–

The next lines start with results.

EC50 (MIA PaCa-2) [µM]	EC50 (NCI-H2023) [µM]	EC50 (MIA PaCa-2; Homo sapiens) [µM]	EC50 (HT-29) [µM]	Compound	EC50 (NCI-H460) [µM]	EC50 (NCI-H460; Homo sapiens) [µM]
≤ 5	≤ 5	–	–	NCCNCCCn1cc(-c2ccc(OC(F)(F)F)cc2)c2cc(CN3CCN(Cc4c(Cl)cccc4Cl)CC3)ccc21 [C26; HCl]	≤ 5	–
≤ 5	≤ 5	–	–	N#Cc1ccc(-c2cn(CCCN)c3ccc(CN4CCN(Cc5c(Cl)cccc5Cl)CC4)cc23)cc1 [C33; HCl]	≤ 5	–
5 to 10	5 to 10	–	–	NCCCn1cc(-c2ccccc2)c2cc(CN3CCN(Cc4c(Cl)cccc4Cl)CC3)ccc21 [C37; HCl]	≤ 5	–
> 30	> 30	–	–	NC1(C(=O)NCCCn2cc(-c3ccc(OC(F)(F)F)cc3)c3cc(CN4CCNCC4)ccc32)CCNCC1 [C48; HCl]	> 30	–
> 30	> 30	–	–	CNCc1ccc2c(c1)c(-c1ccc(OC(F)(F)F)cc1)cn2CCCNC(=O)C1(N)CCNCC1 [C16; HCl]	> 30	–
10 to 30	10 to 30	–	–	CCN1CCN(Cc2ccc3c(c2)c(-c2ccc(OC(F)(F)F)cc2)cn3CCCNC(=O)C2(N)CCNCC2)CC1 [C27; HCl]	> 30	–
> 30	10 to 30	–	–	CN(C)Cc1ccc2c(c1)c(-c1ccc(OC(F)(F)F)cc1)cn2CCCNC(=O)C1(N)CCNCC1 [C29; HCl]	10 to 30	–
≤ 5	≤ 5	–	–	NCCCn1cc(-c2ccc(OC(F)(F)F)cc2)c2cc(CN3CC4CCC(C3)N4Cc3c(Cl)cccc3Cl)ccc21 [C32; HCl]	≤ 5	–
–	≤ 5	≤ 5	–	OCCNCCCn1cc(-c2ccc(OC(F)(F)F)cc2)c2cc(CN3CCN(Cc4c(Cl)cccc4Cl)CC3)ccc21 [Compound C20, 2-(3-(5-((4-(2,6-dichlorobenzyl)piperazin-1-yl)methyl)-3-(4-(trifluoromethoxy)phenyl)-1H-indol-1-yl)propylamino)ethanol]	–	≤ 5
≤ 5	≤ 5	–	–	NCC(=O)NCCCn1cc(-c2ccc(OC(F)(F)F)cc2)c2cc(CN3CCN(Cc4c(Cl)cccc4Cl)CC3)ccc21 [C52; HCl]	≤ 5	–
≤ 5	≤ 5	–	–	NCCCn1cc(-c2ccc(N)nc2)c2cc(CN3CCN(Cc4c(Cl)cccc4Cl)CC3)ccc21 [C18; HCl]	≤ 5	–
≤ 5	≤ 5	–	–	Cc1ccc(-c2cn(CCCNC(=O)C3(N)CCNCC3)c3ccc(CN4CCN(Cc5c(Cl)cccc5Cl)CC4)cc23)cc1 [C39; HCl]	≤ 5	–
≤ 5	≤ 5	–	–	Cc1cccc(C)c1CN1CCN(Cc2ccc3c(c2)c(-c2ccc(OC(F)(F)F)cc2)cn3CCCNC(=O)C2(N)CCNCC2)CC1 [C54; HCl]	≤ 5	–
≤ 5	≤ 5	–	–	CC(C)(N)C(=O)NCCCn1cc(-c2ccc(OC(F)(F)F)cc2)c2cc(CN3CCN(Cc4c(Cl)cccc4Cl)CC3)ccc21 [C46; HCl]	≤ 5	–
–	5 to 10	≤ 5	–	CCOC(=O)CNCCCn1cc(-c2ccc(OC(F)(F)F)cc2)c2cc(CN3CCN(Cc4c(Cl)cccc4Cl)CC3)ccc21 [Compound C28, ethyl 2-(3-(5-((4-(2,6-dichlorobenzyl)piperazin-1-yl)methyl)-3-(4-(trifluoromethoxy)phenyl)-1H-indol-1-yl)propylamino)acetate]	–	5 to 10
≤ 5	≤ 5	–	–	NC1(C(=O)NCCCn2cc(-c3ccc(OC(F)(F)F)cc3)c3cc(CN4C5CCC4CN(Cc4c(Cl)cccc4Cl)C5)ccc32)CCNCC1 [C56; HCl]	≤ 5	–
≤ 5	≤ 5	–	–	NCCCn1cc(-c2ccc(N)cc2)c2cc(CN3CCN(Cc4c(Cl)cccc4Cl)CC3)ccc21 [C50; HCl]	≤ 5	–
≤ 5	≤ 5	–	–	N#Cc1ccc(-c2cn(CCCNC(=O)C3(N)CCNCC3)c3ccc(CN4CCN(Cc5c(Cl)cccc5Cl)CC4)cc23)cc1 [C40; HCl]	≤ 5	–
≤ 5	≤ 5	–	–	NCCCn1cc(-c2ccc(OC(F)(F)F)cc2)c2cc(CN3CCN(Cc4cccc(F)c4Cl)CC3)ccc21 [C19; HCl]	≤ 5	–
≤ 5	≤ 5	–	–	NCCCn1cc(-c2ccc(O)cc2)c2cc(CN3CCN(Cc4c(Cl)cccc4Cl)CC3)ccc21 [C44; HCl]	≤ 5	–
≤ 5	–	–	≤ 5	COc1cccc(NC2CCN(Cc3ccc4c(c3)c(-c3ccc(OC(F)(F)F)cc3CN)cn4CCCN)CC2)c1 [C277; HCl]	≤ 5	–
